Drawing on patent publication US20250340560A1, “SUBSTITUTED PYRAZOLO[1,5-a]PYRIMIDINES AS BRUTON'S TYROSINE KINASE MODULATORS” (BEIGENE SWITZERLAND GMBH, priority 2013, published 2025), this text covers IC50 for 24 molecules.

Where a name gives a salt, the structure may show the parent alone.

The test addresses Recombinant Btk (Homo sapiens (Human), UniProt Q06187). Nature of the test: BTK kinase assay (TR-FRET). Conditions: read-out: IC50 (nM) Btk; 1 hour pre-incubation, ATP at Km. (In general: TR-FRET usually uses a lanthanide donor and a delayed reading to cut background.)

Sequence of Recombinant Btk (Q06187 whole entry): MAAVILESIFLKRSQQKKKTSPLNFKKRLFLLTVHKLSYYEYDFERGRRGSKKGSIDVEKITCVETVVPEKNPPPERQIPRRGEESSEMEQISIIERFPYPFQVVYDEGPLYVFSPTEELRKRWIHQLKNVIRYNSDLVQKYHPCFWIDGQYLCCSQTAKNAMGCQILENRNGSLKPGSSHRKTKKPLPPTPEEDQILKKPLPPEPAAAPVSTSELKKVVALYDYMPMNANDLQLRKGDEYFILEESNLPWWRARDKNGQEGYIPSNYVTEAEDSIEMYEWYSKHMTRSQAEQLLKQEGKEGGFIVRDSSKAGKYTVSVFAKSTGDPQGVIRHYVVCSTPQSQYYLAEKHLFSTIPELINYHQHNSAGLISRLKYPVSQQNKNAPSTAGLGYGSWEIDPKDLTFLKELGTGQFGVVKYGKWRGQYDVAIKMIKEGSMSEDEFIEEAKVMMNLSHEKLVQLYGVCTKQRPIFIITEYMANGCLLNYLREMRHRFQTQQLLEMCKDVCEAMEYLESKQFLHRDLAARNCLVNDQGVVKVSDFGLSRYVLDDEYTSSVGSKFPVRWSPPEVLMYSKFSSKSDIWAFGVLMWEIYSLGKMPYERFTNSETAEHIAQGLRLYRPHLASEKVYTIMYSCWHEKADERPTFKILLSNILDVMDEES

For the molecule `COCCOc1ccc(-c2nn3c(c2C(N)=O)NCCC3c2ccccc2N)cc1` (stereo not drawn) [Compound 21, 7-(2-Aminophenyl)-2-(4-(2-methoxyethoxy)phenyl)-4,5,6,7-tetrahydropyrazolo[1,5-a]pyrimidine-3-carboxamide], the 50% inhibitory concentration (IC50) (in general, the midpoint of a concentration-inhibition curve) is over 10000 nM.

Regarding `NC(=O)c1c(-c2ccc(OC3CCOCC3)cc2)nn2c1NCCC2c1ccccc1N` (stereo not drawn) [Compound 23, 7-(2-Aminophenyl)-2-(4-(tetrahydro-2H-pyran-4-yloxy)phenyl)-4,5,6,7-tetrahydropyrazolo[1,5-a]pyrimidine-3-carboxamide], the 50% inhibitory concentration (IC50) was determined as 3200 nM.

As for `C=CC(=O)Nc1ccccc1C1CCNc2c(C(N)=O)c(-c3ccc(OC4CCOCC4)cc3)nn21` (stereo not drawn) [Compound 24, 7-(2-Acrylamidophenyl)-2-(4-(tetrahydro-2H-pyran-4-yloxy)phenyl)-4,5,6,7-tetrahydropyrazolo[1,5-a]pyrimidine-3-carboxamide], the half-inhibitory concentration (IC50) stood at 39 nM.

Regarding `CC(C)(C)OC(=O)N1CCC(C2CCNc3c(C(N)=O)c(-c4ccc(Oc5ccccc5)cc4)nn32)CC1` (stereo not drawn) [Compound 25, 7-(1-(Tert-butoxycarbonyl)piperidin-4-yl)-2-(4-phenoxyphenyl)-4,5,6,7-tetrahydropyrazolo[1,5-a]pyrimidine-3-carboxamide], the IC50 was found to be 3100 nM.

Take `NC(=O)c1c(-c2ccc(Oc3ccccc3)cc2)nn2c1NCCC2C1CCNCC1` (stereo not drawn) [Compound 26, 7-(Piperidin-4-yl)-2-(4-phenoxyphenyl)-4,5,6,7-tetrahydropyrazolo [1,5-a]pyrimidine-3-carboxamide trifluoroacetate]: the IC50 was 1700 nM.

Consider `NCC1CCNc2c(C(N)=O)c(-c3ccc(Oc4ccccc4)cc3)nn21` (stereo not drawn) [Compound 32, 7-(Aminomethyl)-2-(4-phenoxyphenyl)-4,5,6,7-tetrahydropyrazolo [1,5-a]pyrimidine-3-carboxamide], for which the IC50 amounted to 1700 nM.

Turning to `CNCC1CCNc2c(C(N)=O)c(-c3ccc(Oc4ccccc4)cc3)nn21` (stereo not drawn) [Compound 34, 7-((Methylamino)methyl)-2-(4-phenoxyphenyl)-4,5,6,7-tetrahydro pyrazolo[1,5-a]pyrimidine-3-carboxamide], the IC50 worked out at 1900 nM.

On to `C=CC(=O)N(C)CC1CCNc2c(C(N)=O)c(-c3ccc(Oc4ccccc4)cc3)nn21` (stereo not drawn) [Compound 35], for which the half-inhibitory concentration (IC50) came out at 1.1 nM.

As for `NCC1CCNc2c(C(N)=O)c(-c3cnn(Cc4ccccc4)c3)nn21` (stereo not drawn) [Compound 36, 7-(Aminomethyl)-2-(1-benzyl-1H-pyrazol-4-yl)-4,5,6,7-tetrahydro pyrazolo[1,5-a]pyrimidine-3-carboxamide trifluoroacetate], the 50% inhibitory concentration (IC50) is over 10000 nM.

`C=CC(=O)NCC1CCNc2c(C(N)=O)c(-c3cnn(Cc4ccccc4)c3)nn21` (stereo not drawn) [Compound 37, 7-(Acrylamidomethyl)-2-(1-benzyl-1H-pyrazol-4-yl)-4,5,6,7-tetrahydropyrazolo[1,5-a]pyrimidine-3-carboxamide]: the IC50 worked out at 640 nM.

Regarding `NC(=O)c1c(-c2ccc(Oc3ccccc3)cc2)nn2c1NCC21CCN(Cc2ccccc2)CC1` [Compound 38, 1′-Benzyl-6-(4-phenoxyphenyl)-1,2-dihydrospiro[imidazo[1,2-b]pyrazole-3,4′-piperidine]-7-carboxamide], the concentration for half-maximal inhibition (IC50) turned out to be 490 nM.

Consider `NC(=O)c1c(-c2ccc(Oc3ccccc3)cc2)nn2c1NCC21CCNCC1` [Compound 39, 6-(4-Phenoxyphenyl)-1,2-dihydrospiro[imidazo[1,2-b]pyrazole-3,4′-piperidine]-7-carboxamide], for which the IC50 was 1400 nM.

Regarding `NC(=O)c1c(-c2ccc(Oc3ccccc3)cc2)nn2c1NCCC21CCN(Cc2ccccc2)CC1` [Compound 41, 1-Benzyl-2′-(4-phenoxyphenyl)-5′,6′-dihydro-4′H-spiro[piperidine-4,7′-pyrazolo[1,5-a]pyrimidine]-3′-carboxamide], the IC50 was 180 nM.

Regarding `NC(=O)c1c(-c2ccc(Oc3ccccc3)cc2)nn2c1NCCC21CCNCC1` [Compound 42, 2′-(4-Phenoxyphenyl)-5′,6′-dihydro-4′H-spiro[piperidine-4,7′-pyrazolo [1,5-a]pyrimidine]-3′-carboxamide trifluoroacetate], the IC50 is 330 nM.

For the molecule `C=CC(=O)N1CCC2(CCNc3c(C(N)=O)c(-c4ccc(Oc5ccccc5)cc4)nn32)CC1` [Compound 43, 1-Acryloyl-2′-(4-phenoxyphenyl)-5′,6′-dihydro-4′H-spiro[piperidine-4,7′-pyrazolo[1,5-a]pyrimidine]-3′-carboxamide], the IC50 was 3 nM.

As to `NC(=O)c1c(-c2ccc(Oc3ccccc3)cc2)nn2c1NCC21CN(Cc2ccccc2)C1` [Compound 44, 1-Benzyl-6′-(4-phenoxyphenyl)-1′,2′-dihydrospiro[azetidine-3,3′-imidazo[1,2-b]pyrazole]-7′-carboxamide], the IC50 stood at 220 nM.

Take `NC(=O)c1c(-c2ccc(Oc3ccccc3)cc2)nn2c1NCC21CNC1` [Compound 45, 6′-(4-Phenoxyphenyl)-1′,2′-dihydrospiro[azetidine-3,3′-imidazo[1,2-b]pyrazole]-7′-carboxamide]: the 50% inhibitory concentration (IC50) is 510 nM.

Regarding `C=CC(=O)N1CC2(CNc3c(C(N)=O)c(-c4ccc(Oc5ccccc5)cc4)nn32)C1` [Compound 46, 1-Acryloyl-6′-(4-phenoxyphenyl)-1′,2′-dihydrospiro[azetidine-3,3′-imidazo[1,2-b]pyrazole]-7′-carboxamide], the IC50 is 5 nM.

As to `NC(=O)c1c(-c2ccc(Oc3ccccc3)cc2)nn2cc(-c3cccc(N)c3)[nH]c12` [Compound 47, 2-(3-Aminophenyl)-6-(4-phenoxyphenyl)-1H-imidazo[1,2-b]pyrazole-7-carboxamide], the half-maximal inhibitory concentration (IC50) worked out at 110 nM.

As to `NC(=O)c1c(-c2ccc(Oc3ccccc3)cc2)nn2c(-c3cccc(N)c3)c[nH]c12` [Compound 49, 3-(3-Aminophenyl)-6-(4-phenoxyphenyl)-1H-pyrazolo[1,5-a]imidazole-7-carboxamide], the half-inhibitory concentration (IC50) was 29 nM.

For the molecule `NC(=O)c1c(-c2ccc(Oc3ccccc3)cc2)nn2c3c([nH]c12)CCNC3` [Compound 51, 2-(4-Phenoxyphenyl)-5,6,7,8-tetrahydro-4H-pyrazolo[5′,1′:2,3]imidazo[4,5-c]pyridine-3-carboxamide trifluoroacetate], the 50% inhibitory concentration (IC50) worked out at 310 nM.

For the molecule `NC(=O)c1c(-c2ccc(Oc3ccccc3)cc2)nn2c3c([nH]c12)CCN(C(=O)CCCl)C3` [Compound 53, 7-(3-Chloropropanoyl)-2-(4-phenoxyphenyl)-5,6,7,8-tetrahydro-4H-pyrazolo[5′,1′:2,3]imidazo[4,5-c]pyridine-3-carboxamide], the IC50 was 7.7 nM.

`CC(=O)N1CCc2[nH]c3c(C(N)=O)c(-c4ccc(Oc5ccccc5)cc4)nn3c2C1` [Compound 55, 7-Acetyl-2-(4-phenoxyphenyl)-5,6,7,8-tetrahydro-4H-pyrazolo[5′,1′:2,3]imidazo [4,5-c]pyridine-3-carboxamide]: the IC50 was found to be 82 nM.

In the case of `N#CCC(=O)N1CCc2[nH]c3c(C(N)=O)c(-c4ccc(Oc5ccccc5)cc4)nn3c2C1` [Compound 56, 7-(2-Cyanoacetyl)-2-(4-phenoxyphenyl)-5,6,7,8-tetrahydro-4H-pyrazolo[5′,1′:2,3]imidazo[4,5-c]pyridine-3-carboxamide], the IC50 came out at 110 nM.
